In patent US6863907B2, “Antiallergic composition and antipruritic composition” (Sunstar, Inc., priority 1999, dated 2005):

System: human basophilic leukemia cell line KU812
Assay: Histamine release suppression test using human basophilic leukemia cell line KU812
Format: cell-based
Conditions: KU812 cells, final concentration 0.01%, CRA-1 15 μg/ml stimulation, N=4
Experimental: Histamine Release Suppression Test Using Human Basophilic Leukemia Cell Line KU812
A human basophilic leukemia cell line KU812 was grown in a RPMI 1640 medium (GIBCO) supplemented with 10% fetal bovine serum (treated at 56° C. for 30 min), at 37° C. in 5% CO2. The medium was washed by addition of a histamine release buffer (IMMUNOTECH) followed by centrifugation (1500 rpm, 5 min, 4° C.) and removal of the supernatant. The washing procedure was carried out twice. Then, a histamine release buffer was added to prepare a cell suspension having a cell density of 10^5 cells/ml. […] After centrifugation (2000 rpm, 10 min, 4° C.), the histamine content of the supernatant was measured using a Histamine EIA Kit (IMMUNOTECH) (N=4). Then, the mean and standard deviation of the measured values were obtained from the calibration curve, and the histamine release suppression rate (%) was calculated according to the following equation: [formula] wherein: • A represents the histamine content (n M) released from cells treated with the test substance/reference substance and CRA-1; • B represents the histamine content (n M) released from untreated cells; and • C represents the histamine content (n M) released from cells treated with CRA-1 only.

CNC[C@H](O)c1ccc(O)c(O)c1 [epinephrine]
histamine release suppression rate: 52±16%
